Target: T1, NOD2 (Homo sapiens, UniProt Q9HC29)
T1 construct: host or cells: HEK293 / HEK293T cells carrying a NOD2-responsive luciferase reporter
Assay: NOD2 activity by luciferase assay in HEK293 cells
Format: cell-based
Details: 10 ng/ml MDP control, 24 hours, untreated = 1.00
Method: Existing literature has reported that the protective effect of lactic acid bacteria on inflammatory bowel disease results from the anti-inflammatory effect of NOD2, which is an innate immune receptor protein. […] Specifically, HEK293 cells were treated with 1 MOI of several types of lactic acid bacteria, which had been transduced to generate luciferase by transcription of the luciferase gene through the stimulation of NOD2. For a control with respect to cell activity, HEK293 cells were treated with 10 ng/ml muramyl dipeptide (MDP) capable of stimulating NOD2 and then cultured in a cell incubator for 24 hours. Thereafter, the NOD2 activity was determined by luciferase assay on the luciferase generated from cell rupture. MDP, which is a component of the peptidoglycan constituting the cell wall of bacteria, is a ligand that directly acts on NOD2, and this was used as a control.

T1 sequence (Q9HC29 whole entry): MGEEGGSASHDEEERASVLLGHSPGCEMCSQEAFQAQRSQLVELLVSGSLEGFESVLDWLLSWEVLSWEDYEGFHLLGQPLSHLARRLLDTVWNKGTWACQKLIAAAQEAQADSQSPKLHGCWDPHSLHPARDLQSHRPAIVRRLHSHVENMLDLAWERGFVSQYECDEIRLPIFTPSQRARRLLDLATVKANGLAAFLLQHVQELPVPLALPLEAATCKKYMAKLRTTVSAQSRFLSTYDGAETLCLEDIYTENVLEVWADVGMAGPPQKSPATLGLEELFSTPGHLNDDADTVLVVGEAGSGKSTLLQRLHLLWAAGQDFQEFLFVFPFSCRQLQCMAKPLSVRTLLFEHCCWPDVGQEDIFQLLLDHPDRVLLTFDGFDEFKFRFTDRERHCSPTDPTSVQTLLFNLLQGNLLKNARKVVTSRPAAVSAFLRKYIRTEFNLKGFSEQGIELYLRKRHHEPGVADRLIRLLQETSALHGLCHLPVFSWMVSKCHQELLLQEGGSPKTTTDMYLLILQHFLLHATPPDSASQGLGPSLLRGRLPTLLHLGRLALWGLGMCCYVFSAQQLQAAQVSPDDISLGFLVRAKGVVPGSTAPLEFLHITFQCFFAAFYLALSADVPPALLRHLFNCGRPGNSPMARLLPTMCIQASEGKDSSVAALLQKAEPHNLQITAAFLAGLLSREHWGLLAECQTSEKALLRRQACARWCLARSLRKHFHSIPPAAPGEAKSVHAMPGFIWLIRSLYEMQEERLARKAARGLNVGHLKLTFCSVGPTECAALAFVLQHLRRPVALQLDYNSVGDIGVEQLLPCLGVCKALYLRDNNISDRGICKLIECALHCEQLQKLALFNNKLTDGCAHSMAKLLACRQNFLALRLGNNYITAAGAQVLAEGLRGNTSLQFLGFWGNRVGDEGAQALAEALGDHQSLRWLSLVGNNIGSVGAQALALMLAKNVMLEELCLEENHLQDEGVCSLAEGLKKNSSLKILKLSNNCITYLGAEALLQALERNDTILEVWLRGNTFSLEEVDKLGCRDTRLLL

NOD2 Activity: 40.70
SMILES: CC(=O)N[C@H]1C(O)O[C@H](CO)[C@@H](O)[C@@H]1O[C@H](C)C(=O)N[C@@H](C)C(=O)N[C@H](CCC(=O)O)C(N)=O (mixture of isomers) [MDP, muramyl dipeptide]

Reference: patent US12496319B2 (INDUSTRY FOUNDATION OF CHONNAM NATIONAL UNIVERSITY, priority 2020, dated 2025)
